# Patent publication US20260365647A1, “AKT1 MODULATORS” (Alterome Therapeutics, Inc., priority 2022, published 2026)
# Molecular target: T1, AKT1-E17K (Homo sapiens, UniProt P31749, E17K)
# T1 construct: host or cells: HEK-293 (ATCC CRL-1573)
# Experiment: NanoBRET Target Engagement (TE) Assay
# Assay type: cell-based
# In short: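 Live cells transiently expressing NanoLuc-AKT1 E17K fusion, incubated 2 h with tracer and compound before substrate plus extracellular NanoLuc inhibitor were added. BRET read at 450/600 nm; EC50 from variable-slope sigmoidal fit of tracer displacement.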
# T1 sequence (P31749 whole entry E17K): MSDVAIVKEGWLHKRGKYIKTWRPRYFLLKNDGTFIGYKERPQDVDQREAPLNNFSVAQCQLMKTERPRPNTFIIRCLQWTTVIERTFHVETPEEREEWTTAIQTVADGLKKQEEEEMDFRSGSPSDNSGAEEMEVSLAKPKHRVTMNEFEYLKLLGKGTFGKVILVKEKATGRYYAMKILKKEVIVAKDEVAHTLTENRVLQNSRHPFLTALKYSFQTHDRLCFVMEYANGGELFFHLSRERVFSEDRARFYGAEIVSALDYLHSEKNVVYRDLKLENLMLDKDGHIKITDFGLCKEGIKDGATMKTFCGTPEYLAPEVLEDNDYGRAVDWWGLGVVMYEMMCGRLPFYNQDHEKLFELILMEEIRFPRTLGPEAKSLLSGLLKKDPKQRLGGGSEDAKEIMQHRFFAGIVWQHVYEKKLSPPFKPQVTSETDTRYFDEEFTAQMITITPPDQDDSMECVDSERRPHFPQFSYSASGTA
smiles,measurement,value
"Nc1ncccc1-c1nc2ccc(-c3ccc[nH]c3=O)nc2n1-c1ccc(CN2CCN(C(=O)c3ccc(C=O)c(O)c3)CC2)cc1 [Example 15, 4-(4-(4-(2-(2-Aminopyridin-3-yl)-5-(2-oxo-1,2-dihydropyridin-3-yl)-3H-imidazo[4,5-b]pyridin-3-yl)benzyl)piperazine-1-carbonyl)-2-hydroxybenzaldehyde]",IC50,> 600 nM
"Nc1ncccc1-c1nc2ccc(-c3ccccc3)nc2n1-c1ccc(CN2C[C@H]3CN(C(=O)c4ccc(C=O)c(O)c4)C[C@@H]3C2)cc1 [Example 136, 4-((3aS,6aS)-5-(4-(2-(2-Aminopyridin-3-yl)-5-phenyl-3H-imidazo[4,5-b]pyridin-3-yl)benzyl)octahydropyrrolo[3,4-c]pyrrole-2-carbonyl)-2-hydroxybenzaldehyde]",IC50,60 to 600 nM
"Nc1ncccc1-c1nc2ccc(-c3ccccc3)nc2n1-c1ccc(CN2CC[C@]3(CCN(C(=O)c4ccc(C=O)c(O)c4)C3)C2)cc1 [Example 102, (S)-4-(7-(4-(2-(2-Aminopyridin-3-yl)-5-phenyl-3H-imidazo[4,5-b]pyridin-3-yl)benzyl)-2,7-diazaspiro[4.4]nonane-2-carbonyl)-2-hydroxybenzaldehyde]",IC50,60 to 600 nM
"CN(c1ccc(C=O)c(O)c1)C1CCN(Cc2ccc(-n3c(-c4cccnc4N)nc4ccc(-c5ccccc5)nc43)cc2)CC1 [Example 57, 4-((1-(4-(2-(2-Aminopyridin-3-yl)-5-phenyl-3H-imidazo[4,5-b]pyridin-3-yl)benzyl)piperidin-4-yl)(methyl)amino)-2-hydroxybenzaldehyde]",IC50,60 to 600 nM
"Nc1ncccc1-c1nc2ccc(-c3ccccc3Cl)nc2n1-c1ccc(CN2CCN(c3ccc(C=O)c(O)c3)CC2)cc1 [Example 145, 4-(4-(4-(2-(2-Aminopyridin-3-yl)-5-(2-chlorophenyl)-3H-imidazo[4,5-b]pyridin-3-yl)benzyl)piperazin-1-yl)-2-hydroxybenzaldehyde]",IC50,60 to 600 nM
"Nc1ncccc1-c1nc2ccc(C3=CCOCC3)nc2n1-c1ccc(CN2CCN(C(=O)c3ccc(O)c(C=O)c3)CC2)cc1 [Example 29, 5-(4-(4-(2-(2-Aminopyridin-3-yl)-5-(3,6-dihydro-2H-pyran-4-yl)-3H-imidazo[4,5-b]pyridin-3-yl)benzyl)piperazine-1-carbonyl)-2-hydroxybenzaldehyde]",IC50,60 to 600 nM
"Nc1ncccc1-c1nc2ccc(-c3ccccc3)nc2n1-c1ccc(CN2CCC(Nc3cccc(C=O)c3O)CC2)cc1 [Example 50, 3-((I-(4-(2-(2-Aminopyridin-3-yl)-5-phenyl-3H-imidazo[4,5-b]pyridin-3-yl)benzyl)piperidin-4-yl)amino)-2-hydroxybenzaldehyde]",IC50,15 to 60 nM
"Nc1ncccc1-c1nc2ccc(-c3ccccc3)nc2n1-c1ccc(CN2CCC3(CCN(c4ccc(O)c(C=O)c4)C3)C2)cc1 (centres unmarked) [Example 83, 5-(7-(4-(2-(2-Aminopyridin-3-yl)-5-phenyl-3H-imidazo[4,5-b]pyridin-3-yl)benzyl)-2,7-diazaspiro[4.4]nonan-2-yl)-2-hydroxybenzaldehyde]",IC50,60 to 600 nM
"Nc1ncccc1-c1nc2ccc(C3=CCCCC3)nc2n1-c1ccc(CN2CCN(C(=O)c3ccc(C=O)c(O)c3)CC2)cc1 [Example 151, 4-(4-(4-(2-(2-aminopyridin-3-yl)-5-(cyclohex-1-en-1-yl)-3H-imidazo[4,5-b]pyridin-3-yl)benzyl)piperazine-1-carbonyl)-2-hydroxybenzaldehyde]",IC50,> 600 nM
"Nc1ncccc1-c1nc2ccc(-c3ccccc3)nc2n1-c1ccc(CN2CCC[C@@H](NC(=O)c3ccc(O)c(C=O)c3)C2)cc1 [Example 58, (R)—N-(1-(4-(2-(2-Aminopyridin-3-yl)-5-phenyl-3H-imidazo[4,5-b]pyridin-3-yl)benzyl)piperidin-3-yl)-3-formyl-4-hydroxybenzamide]",IC50,15 to 60 nM
"Nc1ncccc1-c1nc2ccc(-c3ccccc3)nc2n1-c1ccc(CN2CC3(CCN(c4ccc(C=O)c(O)c4)CC3)C2)cc1 [Example 97, 4-(2-(4-(2-(2-Aminopyridin-3-yl)-5-phenyl-3H-imidazo[4,5-b]pyridin-3-yl)benzyl)-2,7-diazaspiro[3.5]nonan-7-yl)-2-hydroxybenzaldehyde]",IC50,60 to 600 nM
